Columns and labels:
[1] = test system: E. coli S30 extract (bacterial protein synthesis); experiment: E. coli S30 extract coupled transcription-translation luciferase assay (inhibition of bacterial protein synthesis); assay type: biochemical; settings: class by IC50 or % inhibition @ 1 μM, read-out: S30 IC50 (μM/% inhib.)
Procedure: E. coli S30 extract: Inhibition of bacterial protein synthesis was determined using the E. coli S30 Extract System for Circular DNA (Promega catalog #L-2010) and Luciferase Assay Reagent (Promega catalog #E1500) with slight modifications to a published protocol. Fyfe, C., Sutcliffe, J. A. and Grossman, T. H. (2012) “Development and characterization of a Pseudomonas aeruginosa in vitro coupled transcription-translation assay system for evaluation of translation inhibitors” J. Microbiol. Methods 90(3), 256-261.
Compounds were serial diluted in 0.5 mL microcentrifuge tubes by mixing and transferring 50 μL from the highest concentration to 50 μL of water, mixing and transferring 50 μL of this 2-fold dilution to 50 μL of water. This mixing and transferring was repeated so that there are a total of 8 tubes with serial dilutions of compound at 10× the desired screening concentration that are ultimately diluted to 1× by the addition of S30 luciferase synthesis mixture. Serial dilutions of compounds were added (2 μL) to wells in a black round bottom 96-well plate. Water (2 μL) was used as a “no inhibitor” control in 4 wells/plate. No DNA control reaction mixture (20 μL; see below) was used as a control in 4 wells/plate for background luminescence. S30 luciferase synthesis mixture (18 μL; see below) was added to wells with compounds or water mixture and incubated at 37° C. for 1 hour. Reactions were stopped by transferring to 4° C. refrigerator for 5 minutes then 25 μL of luciferase activity mix was added. Luminescence was measured using a BioTek Synergy HTX plate reader. % Inhibition was determined relative to no inhibitor controls. • S30 luciferase synthesis mixture: • 445 μL S30 extract, circular • 712 μL S30 Premix without amino acids • 4.45 μL pBESTluc™ DNA (1 μg/μL) • 78 μL complete amino acid mixture • 267 μL water • No DNA control: • 20 μL S30 extract, circular • 32 μL S30 Premix without amino acids • 7 μL complete amino acid mixture • 21 μL water Rabbit Reticulocyte lysate

E. coli (Ec) = experiment: Broth microdilution minimum inhibitory concentration (MIC), CLSI; assay type: cell-based; settings: Escherichia coli, growth medium supplemented with sodium bicarbonate, read-out: E. coli + bicarb MIC
Procedure: A certified BSL-2 laboratory was used for testing. Compounds were evaluated using the broth microdilution minimum inhibitory concentration (MIC) and minimum bactericidal concentration (MBC) assays defined by Clinical and Laboratory Standards Institute (CLSI) in the M26-A guideline against S. aureus (Sa), E. coli (Ec), K. pneumoniae (Kp), A. baumannn (Ab), E. faecalis (Ef) and P. aeruginosa (Pa).
MICs were determined using the Clinical Laboratory and Standards Institute (CLSI) Broth Microdilution Method with slight modification. Clinical and Laboratory Standards Institute (2012). “Methods for dilution antimicrobial susceptibility tests for bacteria that grow aerobically; approved standard, 9th ed. M07-A9 Clinical and Laboratory Standards Institute, Wayne, PA” Serial two-fold dilutions of compounds are prepared in sterile clear round-bottom 96-well plates.
To prepare microdilution trays, two-fold dilutions of antimicrobial agent are prepared in growth medium: Cation-Adjusted Mueller-Hinton Broth (CAMHB), or CAMHB supplemented with sodium bicarbonate (6.25 or 25 mM final concentration prepared from a 1.0M stock solution) or CAMHB supplemented with heat inactivated human serum (Fisher Cat. #BP2657100) 0-50% by adding 200 µL of the highest concentration to be tested (64 μg/mL, for example) in row A, mixing and transferring 100 μL from row A to 100 μL growth medium in row B, then repeating the mixing and transferring through row H of the 96-well plate, discarding the excess […] remaining. This slight modification to the CLSI protocol enables evaluation of MICs for 3 compounds per plate in triplicate, albeit with only 8 compound dilutions (CLSI protocol enables 2 compounds in triplicate with 10 dilutions). Bacterial suspensions are added to a final concentration of 5×10^4 CFU/well by adding 5 μL of a 1:10 dilution of a 0.5 McFarland suspension (1×10^8 CFU/mL) for each bacterium evaluated. Bacterial suspensions were prepared using the growth method described by CLSI. Well-isolated colonies (3-5 from an agar plate) were selected using a sterile loop and used to inoculate a tube containing 4 mL of CAMHB. The cultures are incubated at 35±2° C. until it achieves or exceeds the turbidity of the 0.5 McFarland standard, determined by measuring A600 (usually two to six hours). When growth exceeds a 0.5 McFarland standard, the turbidity is adjusted with broth to be equivalent to a 0.5 McFarland standard.

[2] = biological target: Rabbit Reticulocyte Lysate (eukaryotic protein synthesis); experiment: Rabbit reticulocyte lysate luciferase assay (inhibition of eukaryotic protein synthesis); assay type: biochemical; settings: class by IC50 or % inhibition @ 1 μM, read-out: Rabbit reticulocyte IC50 (μM/% inhib.)
Procedure: Inhibition of eukaryotic protein synthesis was determined using the Rabbit Reticulocyte Lysate System, Nuclease-Treated from Promega (catalog #L-4960) with slight modifications to the manufacturer's protocol. Compounds were serial diluted in 0.5 mL microcentrifuge tubes by mixing and transferring 50 μL from the highest concentration to 50 μL of water, mixing and transferring 50 μL of this 2-fold dilution to 50 μL of water. This mixing and transferring was repeated so that there are a total of 8 tubes with serial dilutions of compound at 10× the desired screening concentration that are ultimately diluted to 1× by the addition of rabbit reticulocyte luciferase synthesis mixture. Serial dilutions of compounds were added (2.5 μL) to wells in a black round bottom 96-well plate. Water (2.5 μL) was used as a “no inhibitor” control in 4 wells/plate. No RNA control reaction mixture (2 μL; see below) was used as a control in 4 wells/plate for background luminescence. Rabbit reticulocyte luciferase synthesis mixture (22.5 μL; see below) was added to wells with compounds or water mixture and incubated at 30° C. for 90 minutes. Luciferase assay reagent (25 μL) was added with luminescence measured using a BioTek Synergy HTX plate reader. % Inhibition was determined relative to no inhibitor controls.
Rabbit Reticulocyte Luciferase Synthesis Mixture:
• 1,000 μL rabbit reticulocyte lysate • 5.7 μL Luciferase Control RNA (1 μg/μL) • 26 μL complete amino acid mixture • 395 μL water • No RNA Control • 70 μL rabbit reticulocyte lysate • 2 μL complete amino acid mixture • 28 μL water Minimum Inhibitory Concentration (MIC)

## CC(C)(N)C(=O)N1CCN(C(=O)Nc2ccn(-c3cc(F)c(CN4C[C@@H]5[C@@H](N)[C@@H]5C4)c(F)c3)c(=O)n2)CC1 [Compound 8]
[1]
  IC50: ≥ 1 µM
E. coli (Ec)
  MIC: > 32 µg/mL

## CC(C)(N)C(=O)N1CCN(C(=O)Nc2ccn(-c3cccc(CCN4C[C@@H]5[C@@H](N)[C@@H]5C4)c3)c(=O)n2)CC1 [Compound 86]
[1]
  IC50: ≥ 1 µM
[2]
  IC50: ≥ 1 µM

## CC(C)(N)C(=O)N1CCN(C(=O)Nc2ccn(-c3ccc(C(C)(C)CN4C[C@@H]5[C@@H](CN)[C@@H]5C4)cc3)c(=O)n2)CC1 [Compound 118]
[1]
  IC50: ≥ 1 µM
[2]
  IC50: ≥ 1 µM

## NC[C@@H]1[C@H]2CN(Cc3ccc(-n4ccc(NC(=O)N5CCN(C(=O)C6(CN)CC6)CC5)nc4=O)cc3)C[C@@H]12 [Compound 70]
[1]
  IC50: ≥ 1 µM
E. coli (Ec)
  MIC: < 8 µg/mL

## CC(C)(N)CC(=O)N1CCN(C(=O)Nc2ccn(-c3ccc(CN4C[C@@H]5[C@@H](N)[C@@H]5C4)c(C(F)(F)F)c3)c(=O)n2)CC1 [Compound 9]
[1]
  IC50: ≥ 1 µM
E. coli (Ec)
  MIC: > 32 µg/mL

## CC(C)(N)C(=O)N1CCN(C(=O)Nc2ccn(-c3cc(CN4C[C@@H]5[C@@H](N)[C@@H]5C4)cc(C(F)(F)F)c3)c(=O)n2)CC1 [Compound 5]
[1]
  IC50: ≥ 1 µM
[2]
  IC50: ≥ 1 µM

## CC(C)(N)C(=O)N1CCN(C(=O)Nc2ccn(-c3ccc(CCN4C[C@H]5CNC[C@H]5C4)cc3)c(=O)n2)CC1 [Compound 159]
[1]
  IC50: ≥ 1 µM
[2]
  IC50: ≥ 1 µM

## Cc1cc(-n2ccc(NC(=O)N3CCN(C(=O)[C@@](C)(N)CO)CC3)nc2=O)ccc1CN1C[C@@H]2[C@@H](N)[C@@H]2C1 [Compound 1]
[1]
  IC50: < 0.5 µM
[2]
  IC50: ≥ 1 µM

## CC(C)(N)C(=O)N1CCN(C(=O)Nc2ccn(-c3ccc(C(C)(C)CN4CC5CC5(CN)C4)cc3)c(=O)n2)CC1 (centres unmarked) [Compound 119]
[1]
  IC50: ≥ 1 µM
[2]
  IC50: ≥ 1 µM

## N[C@@H]1[C@H]2CN(CCc3cccc(-n4ccc(NC(=O)N5CCN(C(=O)C6(N)CCC6)CC5)nc4=O)c3)C[C@@H]12 [Compound 88]
[1]
  IC50: ≥ 1 µM
[2]
  IC50: ≥ 1 µM

## CCOC(=O)C(c1ccc(-n2ccc(NC(=O)N3CCN(C(=O)C(C)(C)N)CC3)nc2=O)cc1)N1C[C@@H]2[C@@H](N)[C@@H]2C1 (some centres unmarked) [Compound 10]
[1]
  IC50: ≥ 1 µM
[2]
  IC50: ≥ 1 µM

## C[C@](N)(CN)C(=O)N1CCN(C(=O)Nc2ccn(-c3ccc(CN4C[C@@H]5[C@@H](N)[C@@H]5C4)cc3)c(=O)n2)CC1 [Compound 44]
[1]
  IC50: ≥ 1 µM
[2]
  IC50: ≥ 1 µM

## CC(C)(N)C(=O)N1CCN(C(=O)Nc2ccn(-c3ccc(CN4C[C@@H]5[C@@H](N)[C@@H]5C4)nc3)c(=O)n2)CC1 [Compound 57]
[1]
  IC50: ≥ 1 µM
[2]
  IC50: ≥ 1 µM

## CC(C)(N)C(=O)N1CCCN(C(=O)Nc2ccn(-c3ccc(CN4C[C@@H]5[C@@H](N)[C@@H]5C4)cc3)c(=O)n2)CC1 [Compound 26]
[1]
  IC50: ≥ 1 µM
E. coli (Ec)
  MIC: < 8 µg/mL

## CC(C)(N)C(=O)N1CCN(C(=O)Nc2ccn(-c3ccc(CCN4C[C@@H]5[C@H](N)[C@@H]5C4)cc3)c(=O)n2)CC1 [Compound 90]
[1]
  IC50: ≥ 1 µM
[2]
  IC50: ≥ 1 µM

## CC(Cc1ccc(-n2ccc(NC(=O)N3CCN(C(=O)C(C)(C)N)CC3)nc2=O)cc1)N1C[C@@H]2[C@@H](N)[C@@H]2C1 (some centres unmarked) [Compound 98]
[1]
  IC50: ≥ 1 µM
[2]
  IC50: ≥ 1 µM

## CC(C)(N)C(=O)N1CCN(C(=O)Nc2ccn(-c3ccc(CN4CCN5CCNCC5C4)cc3)c(=O)n2)CC1 (centres unmarked) [Compound 78]
[1]
  IC50: ≥ 1 µM
[2]
  IC50: ≥ 1 µM

## CC(C)(N)C(=O)N1CCN(C(=O)Nc2ccn(-c3ccc(CN4CCC5(CCC(N)CC5)CC4)cc3)c(=O)n2)CC1 [Compound 55]
[1]
  IC50: < 0.5 µM
[2]
  IC50: ≥ 1 µM

## CC(CN1C[C@@H]2[C@@H](N)[C@@H]2C1)c1ccc(-n2ccc(NC(=O)N3CCN(C(=O)C(C)(C)N)CC3)nc2=O)cc1 (some centres unmarked) [Compound 97]
[1]
  IC50: ≥ 1 µM
[2]
  IC50: ≥ 1 µM

## C[C@](N)(CO)C(=O)N1CCN(C(=O)Nc2ccn(-c3ccc(CCN4C[C@@H]5[C@@H](N)[C@@H]5C4)cc3)c(=O)n2)CC1 [Compound 85]
[1]
  IC50: ≥ 1 µM
E. coli (Ec)
  MIC: > 32 µg/mL

## CC(C)(N)C(=O)N1CCN(C(=O)Nc2ccn(-c3ccc(CN4C[C@@H]5[C@@H](N)[C@@H]5C4)c(C(F)(F)F)c3)c(=O)n2)CC1 [Compound 6]
[1]
  IC50: ≥ 1 µM
[2]
  IC50: ≥ 1 µM

## C[C@](N)(CO)C(=O)N1CCN(C(=O)Nc2ccn(-c3ccc(CN4C[C@@H]5[C@@H](N)[C@@H]5C4)c(C(F)(F)F)c3)c(=O)n2)CC1 [Compound 11]
[1]
  IC50: ≥ 1 µM
[2]
  IC50: ≥ 1 µM

## CC(C)(N)C(=O)N1CCN(C(=O)Nc2ccn(-c3ccc(CCN4CC5(CC(N)C5)C4)cc3)c(=O)n2)CC1 [Compound 92]
[1]
  IC50: < 0.5 µM
[2]
  IC50: ≥ 1 µM

## CC(C)(N)C(=O)N1CCN(C(=O)Nc2ccn(-c3cccc(CCN4C[C@H]5CNC[C@H]5C4)c3)c(=O)n2)CC1 [Compound 158]
[1]
  IC50: ≥ 1 µM

## NC[C@H](N)C(=O)N1CCN(C(=O)Nc2ccn(-c3ccc(CN4C[C@@H]5[C@@H](N)[C@@H]5C4)cc3)c(=O)n2)CC1 [Compound 43]
[1]
  IC50: ≥ 1 µM
[2]
  IC50: ≥ 1 µM

## CC(C)(N)C(=O)N1CCN(C(=O)Nc2ccn(-c3ccc(CN4CCC5(CC5N)C4)cc3)c(=O)n2)CC1 (centres unmarked) [Compound 22]
[1]
  IC50: < 0.5 µM
[2]
  IC50: ≥ 1 µM

## CC(C)(N)C(=O)N1CCN(C(=O)Nc2ccn(-c3ccc(CN4C[C@@H]5CN[C@@H]5C4)cc3)c(=O)n2)CC1 [Compound 79]
[1]
  IC50: ≥ 1 µM
[2]
  IC50: ≥ 1 µM

## CC(C)(N)C(=O)N1CCN(C(=O)Nc2ccn(-c3ccc(CCN4C[C@@H]5[C@@H](N)[C@@H]5C4)cc3)c(=O)n2)CC1 [Compound 84]
[1]
  IC50: ≥ 1 µM
E. coli (Ec)
  MIC: > 32 µg/mL

## N[C@@H]1[C@H]2CN(CCc3cccc(-n4ccc(NC(=O)N5CCNCC5)nc4=O)c3)C[C@@H]12 [Compound 87]
[1]
  IC50: ≥ 1 µM
[2]
  IC50: ≥ 1 µM

## COc1cc(-n2ccc(NC(=O)N3CCN(C(=O)C(C)(C)N)CC3)nc2=O)ccc1CCN1C[C@@H]2[C@H](N)[C@@H]2C1 [Compound 104]
[1]
  IC50: ≥ 1 µM
[2]
  IC50: ≥ 1 µM

— patent US12692253B2, “Antimicrobial compounds and methods” (Curza Global, LLC, priority 2019, dated 2026)
